Assay results taken from patent US11111218B2, “Crystalline form of 5-amino-2,3-dihydrophthalazine-1,4-dione” (METRIOPHARM AG, priority 2016, dated 2021).

Conditions: TG-DSC
From the text: Upper trace: Mass loss determined by TG. Lower trace: Heat flow determined by DSC

thermal stability up to (crystalline solid): up to 320±1 °C
SMILES: Nc1cccc2c(=O)[nH][nH]c(=O)c12 [Form II, 5-amino-2,3-dihydrophthalazine-1,4-dione]
solid state transformation to other forms (until thermal degradation of the crystalline compound sets in): no solid state transformation to other forms is observed
